# Reference: patent US10532054B2, “Compounds for the prevention and treatment of cardiovascular diseases” (Resverlogix Corp., priority 2007, dated 2020)
# Counter-ions that a name gives are not always drawn.
row,SMILES,melting point
1,"COc1cc(OC)c2c(=O)[nH]c(-c3ccc(O)c(OC)c3)nc2c1 [Example 31, 2-(4-hydroxy-3-methoxyphenyl)-5,7-dimethoxyquinazolin-4(3H)-one]",294 to 296 °C
2,"COc1cc(OC)c2c(=O)[nH]c(-c3ccc(N(CCO)CCO)cc3)nc2n1 [Example 78, 2-(4-(bis(2-hydroxyethyl)amino)phenyl)-5,7-dimethoxy-pyrido[2,3-d]pyrimidin-4(3H)one]",277 to 279 °C
3,"Cc1cc(-c2cc3ncccc3c(=O)[nH]2)cc(C)c1O (as salt: HCl) [Example 8, 7-(4-hydroxy-3,5-dimethylphenyl)-1,6-naphthyridin-5(6H)-one]",> 350 °C
4,"COc1cc(OC)c2c(=O)[nH]c(-c3cc(C)c(OCCO)c(C)c3)nc2n1 [Example 70, 2-(4-(2-hydroxyethoxy)-3,5-dimethylphenyl)-5,7-dimethoxypyrido[2,3-d]pyrimidin-4(3H)-one]",255 to 256 °C
5,"COc1cc2nc(-c3cc(C)c(O)c(C)c3)[nH]c(=O)c2cc1OC [Example 52, 2-(4-hydroxy-3,5-dimethylphenyl)-6,7-dimethoxyquinazolin-4(3H)-one]",> 300 °C
6,"NC(=O)COc1ccc(-c2nc3ccccc3c(=O)[nH]2)cc1 [Example 41, 2-(4-(4-oxo-3,4-dihydroquinazolin-2-yl)phenoxy)acetamide]",277.5 to 278.5 °C
7,"COc1cc(OC)c2c(=O)[nH]c(-c3ccccn3)nc2c1 (as salt: hydrochloride) [Example 26, 5,7-dimethoxy-2-(pyridin-2-yl)quinazolin-4(3H)-one]",215 to 217 °C
8,"COc1cc2cc(-c3cc(C)c(O)c(C)c3)[nH]c(=O)c2c(OC)c1CN1CCOCC1 [Example 51, 3-(4-hydroxy-3,5-dimethylphenyl)-6,8-dimethoxy-7-(morpholinomethyl)isoquinolin-1(2H)-one]",158 to 161 °C
9,"COc1cc(OC)c2cnc(-c3cc(C)c(OCCO)c(C)c3)nc2c1 [Example 76, 2-(4-(5,7-dimethoxyquinazolin-2-yl)-2,6-dimethylphenoxy)ethanol]",169 to 170 °C
10,"COc1cc(OC)c2c(=O)[nH]c(-c3ccc(OC)c(CN4CCOCC4)c3)nc2c1 [Example 69, 5,7-dimethoxy-2-(4-methoxy-3-(morpholinomethyl)phenyl)quinazolin-4(3H)-one]",282.7 to 284.5 °C
11,"Cc1cc(-c2nc3cc(Cl)cc(Cl)c3c(=O)[nH]2)cc(C)c1OCCO [Example 80, 5,7-dichloro-2-(4-(2-hydroxyethoxy)-3,5-dimethylphenyl)quinazolin-4(3H)-one]",260.8 to 262.6 °C
12,COc1cc(OC)c2c(=O)[nH]c(-c3cc(C)c(OCCN4CCN(C)CC4)c(C)c3)cc2c1 (as salt: hydrochloride) [Example 23],195 to 198 °C
13,"COc1cc(OC)c2c(=O)[nH]c(-c3ccc(OCCO)c(OC)c3)nc2c1 [Example 57, 2-(4-(2-hydroxyethoxy)-3-methoxyphenyl)-5,7-dimethoxyquinazolin-4(3H)-one]",246 to 248 °C
14,"COc1cc(OC)c2c(=O)nc(-c3cc(C)c(O)c(C)c3)n(C)c2c1 [Example 71, 2-(4-hydroxy-3,5-dimethylphenyl)-5,7-dimethoxy-1-methylquinazolin-4(1H)-one]",188.5 to 189.1 °C
15,"COc1cc2nc(-c3ccc(N(CCO)CCO)cc3)[nH]c(=O)c2cc1OC [Example 47, 2-(4-(bis(2-hydroxyethyl)amino)phenyl)-6,7-dimethoxyquinazolin-4(3H)-one]",268 to 270 °C
16,"COc1cc2nc(-c3cc(C)c(O)c(C)c3)[nH]c(=O)c2c(OC)c1CN1CCOCC1 [Example 81, 2-(4-hydroxy-3,5-dimethylphenyl)-5,7-dimethoxy-6-(morpholinomethyl)quinazolin-4(3H)-one]",237 to 239.1 °C
17,"COc1cc(OC)c2c(=O)[nH]c(-c3ccc(N(CCO)CCO)cc3)nc2c1 [Example 46, 2-(4-(bis(2-hydroxyethyl)amino)phenyl)-5,7-dimethoxyquinazolin-4(3H)-one]",249 to 251 °C
18,"COc1cc(O)nc2cc(-c3cc(C)c(O)c(C)c3)[nH]c(=O)c12 (as salt: hydrochloride) [Example 12, 2-hydroxy-7-(4-hydroxy-3,5-dimethylphenyl)-4-methoxy-1,6-naphthyridin-5(6H)-one]",> 330 °C
19,"Cc1cc(-c2cc3nc(OC(C)C)cc(OC(C)C)c3c(=O)[nH]2)cc(C)c1O [Example 74, 7-(4-hydroxy-3,5-dimethylphenyl)-2,4-diisopropoxy-1,6-naphthyridin-5(6H)-one]",206 to 208 °C
20,"COc1cc(O)c2c(=O)[nH]c(-c3cc(C)c(O)c(C)c3)nc2c1 [Example 104, 5-hydroxy-2-(4-hydroxy-3,5-dimethylphenyl)-7-methoxyquinazolin-4(3H)-one]",291.3 to 293 °C
21,"O=c1[nH]c(-c2ccc(O)cc2)cc2ccccc12 [Example 1, 3-(4-Hydroxyphenyl)-2H-isoquinolin-1-one]",239 to 241 °C

row,SMILES,melting point
1,"COc1cc(OC)c2c(=O)[nH]c(-c3cc(C)c(O)c(C)c3)nc2n1 [Example 68, 2-(4-hydroxy-3,5-dimethylphenyl)-5,7-dimethoxypyrido[2,3-d]pyrimidin-4(3H)-one]",297 to 299 °C
2,"COc1cc(OC)c2cnc(-c3cc(C)c(O)c(C)c3)cc2c1 (as salt: hydrochloride) [Example 18, 4-(6,8-dimethoxyisoquinolin-3-yl)-2,6-dimethylphenol]",255 to 256 °C
3,"COc1cc(OC)c2c(=O)[nH]c(-c3ccc(NC(=O)CO)cc3)nc2c1 [Example 65, N-(4-(5,7-dimethoxy-4-oxo-3,4-dihydroquinazolin-2-yl)phenyl)-2-hydroxyacetamide]",318 to 319 °C
4,"COc1cc(OC)c2c(=O)[nH]c(-c3ccc(O)cc3)cc2c1 [Example 6, 3-(4-hvdroxyphenyl)-6,8-dimethoxyisoquinolin-1(2H)-one]",245 to 247 °C
5,"COc1cc(OC)c2c(=O)[nH]c(-c3cc(C)c(OCCN(C)C)c(C)c3)cc2c1 (as salt: hydrochloride) [Example 10, 3-(4-(2-(dimethylamino)ethoxy)-3,5-dimethylphenyl)-6,8-dimethoxyisoquinolin-1(2H)-one]",261 to 263 °C
6,"COc1cc(OC)c2c(=O)[nH]c(-c3cc(C)c(OCCO)c(C)c3)cc2n1 [Example 61, 7-(4-(2-hydroxyethoxy)-3,5-dimethylphenyl)-2,4-dimethoxy-1,6-naphthyridin-5(6H)-one]",224.9 to 225.4 °C
7,"CC(=O)Nc1ccc2nc(-c3cc(C)c(O)c(C)c3)[nH]c(=O)c2c1 [Example 54, N-(2-(4-hydroxy-3,5-dimethylphenyl)-4-oxo-3,4-dihydroquinazolin-6-yl)acetamide]",336.5 °C (dec.)
8,"COc1cc(OC)cc(-c2nc3cc(OC)cc(OC)c3c(=O)[nH]2)c1 [Example 29, 2-(3,5-dimethoxyphenyl)-5,7-dimethoxyquinazolin-4(3H)-one]",270 to 272 °C
9,"O=c1[nH]c(-c2ccc(N(CCO)CCO)cc2)nc2ccccc12 [Example 45, 2-(4-(bis(2-hydroxyethyl)amino)phenyl)quinazolin-4(3H)-one]",228 to 230 °C
10,"COc1cc(OC)c2c(=O)[nH]c(-c3ccc(CCC(=O)O)cc3)nc2c1 [Example 53, 3-(4-(5,7-dimethoxy-4-oxo-3,4-dihydroquinazolin-2-yl)phenyl)propanoic acid]",250.6 to 251.1 °C
11,"COc1cc(OC)c2c(=O)[nH]c(-c3cc(C)c(OCCN4CCOCC4)c(C)c3)cc2n1 [Example 50, 7-(3,5-dimethyl-4-(2-morpholinoethoxy)phenyl)-2,4-dimethoxy-1,6-naphthyridin-5(6H)-one]",212.5 to 212.9 °C
12,"COc1cc(OC)c2c(=O)[nH]c(-c3cc(C)c(OCC(C)(C)O)c(C)c3)cc2c1 [Example 14, 3-(4-(2-hydroxy-2-methylpropoxy)-3,5-dimethylphenyl)-6,8-dimethoxyisoquinolin-1(2H)-one]",252 to 254 °C
13,"COc1cc(OC)c2c(=O)[nH]c(-c3ccc4c(c3)OCCO4)nc2c1 [Example 42, 2-(2,3-dihydrobenzo[b][1,4]dioxin-6-yl)-5,7-dimethoxyquinazolin-4(3H)-one]",307.5 to 309.6 °C
14,"COc1cc(OC)c2c(=O)[nH]c(-c3cc(C)c(NC(=O)CO)c(C)c3)nc2c1 [Example 60, N-(4-(5,7-dimethoxy-4-oxo-3,4-dihydroquinazolin-2-yl)-2,6-dimethylphenyl)-2-hydroxyacetamide]",190 to 192 °C
15,"COc1cc(OC)c2c(=O)n(C)c(-c3cc(C)c(O)c(C)c3)cc2c1 [Example 7, 3-(4-hydroxy-3,5-dimethylphenyl)-6,8-dimethoxy-2-methylisoquinolin-1(2H)-one]",253 to 254 °C
16,"COc1cc(OC)c2cnc(-c3cc(C)c(OCCN4CCOCC4)c(C)c3)cc2c1 (as salt: HCl) [Example 22, 4-(2-(4-(6,8-dimethoxyisoquinolin-3-yl)-2,6-dimethylphenoxy)ethyl)morpholine]",239 to 240 °C
17,"CCN1CCN(Cc2ccc(-c3nc4cc(OC)cc(OC)c4c(=O)[nH]3)cc2)CC1 (as salt: hydrochloride) [Example 67, 2-(4((4-ethylpiperazin-1-yl)methyl)phenyl)-5,7-dimethoxyquinazolin-4(3H)-one]",278 to 280 °C (dec.)
18,"COc1cc(OC)c2c(=O)[nH]c(-c3ccc(N(C)C)c4ccccc34)nc2c1 [Example 37, 2-(4-(dimethylamino)naphthalen-1-yl)-5,7-dimethoxyquinazolin-4(3H)-one]",269 to 271 °C
19,"COc1cc(OC)c2c(=O)[nH]c(-c3ccc(OCCO)c(Cl)c3)nc2c1 [Example 56, 2-(3-chloro-4-(2-hydroxyethoxy)phenyl)-5,7-dimethoxyquinazolin-4(3H)-one]",287 to 288 °C (dec.)
20,"COc1cc(OC)c2c(=O)[nH]c(-c3ccc(OCC(N)=O)cc3)nc2c1 [Example 38, 2-(4-(5,7-dimethoxy-4-oxo-3,4-dihydroquinazolin-2-yl)phenoxy)acetamide]",309 to 311 °C
21,"COCCOc1c(C)cc(-c2nc3cc(OC)cc(OC)c3c(=O)[nH]2)cc1C [Example 79, 5,7-dimethoxy-2-(4-(2-methoxyethoxy)-3,5-dimethylphenyl)quinazolin-4(3H)-one]",201 to 202 °C
